In US9624247B2, “Pyrazolo-pyrrolidin-4-one derivatives as bet inhibitors and their use in the treatment of disease” (NOVARTIS AG, priority 2013, dated 2017):

Legend:
[1] = tested on: K-562 cells; experiment: Cell growth inhibition assay (CellTiter-Glo), K-562; assay type: cell-based, human; conditions: K-562, 4 days; for GI50: Homo sapiens, K562, 96 h, half-maximal growth inhibition; for K-562 TGI: total growth inhibition
Protocol: (§1) Cell Growth Inhibition Assay
(§2) The human leukemia cell lines MV-4-11, THP-1 and K-562 were employed to characterize the effect of BET inhibitors on cellular proliferation and viability. Cells were obtained from the American Type Culture Collection (ATCC) and cultured at 37° C. in a humidified 5% CO2 incubator in the following media: MV-4-11: DMEM high glucose (Animed #1-26F01-I), 10% FCS (Animed #2-01F26-I), 4 mM L-Glutamine (Animed #5-10K50), 1 mM Sodium Pyruvate (Animed #G03625P), lx Penicillin-Streptomycin (Animed #F12478P); K-562: Iscove's MEM (Animed #1-28F16-I), 10% FCS (Animed #2-01F26-I), 4 mM L-Glutamine (Animed #5-10K50), 1× Penicillin-Streptomycin (Animed #F12478P); THP-1: RPMI-1640 (Animed #1-41F01-I), 10% FCS (Animed #2-01F26-I), 2 mM L-Glutamine (Animed #5-10K50), 10 mM HEPES (Animed #5-31F100), 1 mM Sodium Pyruvate (Animed #G03625P), 1× Penicillin-Streptomycin (Animed #F12478P). The AML lines MV-4-11 and THP-1 are very sensitive to BET inhibitors and show massive cell death upon BET inhibition (Zuber et al., Nature, 478 (2011), 524-8). Compound-mediated suppression of cell proliferation/viability was assessed by quantification of cellular ATP levels using the CellTiter-Glo (CTG) reagent (Promega). Briefly, cells were seeded in 20 μl fresh medium into 384-well plates, followed by addition of 5 μl medium containing compound dilutions at 5-fold their final intended concentration. Dose-response effects were assessed by 3-fold serial dilutions of the test compound, starting at 10 μM. Following incubation of the cells for 4 days at 37° C. and 5% CO2, the effect of inhibitors on cell viability was quantified following addition of 20 μl CTG and luminescence quantification (integration time: 100 ms) as per vendor manual, using a correspondingly equipped Tecan M200 multi-mode platereader (TECAN, Switzerland). For data analysis, the assay background value determined in wells containing medium, but no cells, was subtracted from all data points. To enable differentiation of cytotoxic from cytostatic compounds, the number of viable cells is assessed relative to that observed at the time of compound addition using a separate cell plate (day 0). The effect of a particular test compound concentration on cell proliferation/viability is expressed as percentage of the background- and day 0-corrected luminescence reading obtained for cells treated with vehicle only (DMSO, 0.1% final concentration), which is set as 100%, whereas that luminescence reading for wells containing medium is set as −100%. Compound concentrations leading to half-maximal (IC50) and total growth inhibition (TGI) were determined using standard four parameter curve fitting.

[2] = tested on: THP-1 cells; experiment: Cell growth inhibition assay (CellTiter-Glo), THP-1; assay type: cell-based, human; conditions: THP-1, 4 days; for GI50: Homo sapiens, 96 h, half-maximal growth inhibition; for THP-1 TGI: total growth inhibition
Protocol: as §1, §2

[3] = target: CREBBP bromodomain (His-CREBBP(1081-1197)) (Homo sapiens (Human), UniProt Q92793); experiment: AlphaScreen in-vitro binding assay for CREBBP; conditions: AlphaScreen, acetyl-histone H4 peptide; read-out: CREBBP IC50
Protocol: AlphaScreen In-Vitro Binding Assay for CREBBP
In order to assess bromodomain selectivity, we set up a binding assay using the bromodomain encoded by the CREBBP gene. […] Reactions were incubated at 30° C. for 35 minutes. Subsequently 4.5 μl per well detection mix (50 mM HEPES, pH 7.5, 0.005% Tween20, 0.02% BSA, 150 mM NaCl, 45 μg/ml Ni-chelate acceptor beads, 45 μg/ml streptavidin-donor beads) (Perkin Elmer)) were added. After 60 minutes incubation at room temperature, plates were measured in a Perkin Elmer EnVision multilabel reader. IC50 values were determined from percent inhibition values at different compound concentrations by non-linear regression analysis.
(§3) Preparation of Compound Dilutions
(§4) Test compounds were dissolved in DMSO (10 mM) and transferred into 1.4 mL flat bottom or V-shaped Matrix tubes carrying a unique 2D matrix. The stock solutions were stored at […] if not used immediately. For the test procedure the vials were defrosted and identified by a scanner whereby a working sheet was generated that guided the subsequent working steps. Compound dilutions were made in 96 well plates. This format enabled the assay of maximally 40 individual test compounds at 8 concentrations (single points) including 4 reference compounds, if desired (known BET inhibitors from the prior art, for this and other assays of the type disclosed herein). The dilution protocol included the production of “pre-dilution plates”, “master plates” and “assay plates”.
(§5) Pre-dilution plates: 96 polypropylene well plates were used as pre-dilution plates. A total of 4 pre-dilution plates were prepared including 10 test compounds each on the plate positions A1-A10, one standard compound at A11 and one DMSO control at A12. All dilution steps were done on a HamiltonSTAR robot.
(§6) These plates were used directly for the assay which was performed in a total volume of 13.55 μL.

[4] = target: BRD2 (His-Brd2(60-472)) (Homo sapiens (Human), UniProt P25440); experiment: TR-FRET in-vitro binding assay for BRD2; conditions: acetyl-histone H4 peptide
Protocol: (§7) TR-FRET In-Vitro Binding Assays for BRD2, BRD3, and BRD4:
(§8) All assays were performed in 384 well microtiter plates. Each assay plate contained 8-point serial dilutions for 40 test compounds, plus 16 high- and 16 low controls. Liquid handling and incubation steps were done on an Innovadyne Nanodrop Express equipped with a robotic arm (Thermo CatX, Perkin Elmer/Caliper Twister II) and an incubator (Liconic STX40, Thermo Cytomat 2C450). The assay plates were prepared by addition of 50 nl per well of compound solution in 90% DMSO HummingBird nanodispenser (Zinsser Analytic). The assay was started by stepwise addition of 4.5 μl per well of bromo domain protein (50 mM HEPES, pH 7.5, 0.005% Tween20, 0.1% BSA, 50 mM NaCl, 45 nM His-Brd2(60-472) or 45 nM His-Brd3(20-477) or 45 nM His-Brd4(44-477) all proteins produced in-house) and 4.5 μl per well of peptide solution (50 mM HEPES, pH 7.5, 0.005% Tween20, 0.1% BSA, 50 mM NaCl, 60 nM acetyl-histone H4 (AcK 5, 8, 12, 16) (Biosyntan GmbH)). Reactions were incubated at 30° C. for 35 minutes. […] After 35 minutes incubation at 30° C., plates were measured in a Perkin Elmer EnVision multilabel reader. Concentrations causing 50% inhibition (IC50 values) were determined from percent inhibition values at different compound concentrations by non-linear regression analysis.
as §3, §4, §5
(§9) Master plates: 30 μL of individual compound dilutions including standard compound and controls of the 4 “pre-dilution plates” were transferred into a 384 “master plate” including the following concentrations 10000, 3003, 1000, 300, 100, 30, 10 and 3 μM, respectively in 90% of DMSO.
(§10) Assay plates: Identical “assay plates” were then prepared by pipetting 50 nL each of compound dilutions of the “master plates” into 384-well “assay plates” by means of a HummingBird 384-channel dispenser. These plates were used directly for the assay which was performed in a total volume of 13.55 μL. This led to a final compound concentration of 37, 11, 3.7, 1.1, 0.37, 0.11, 0.037 and 0.011 μM and a final DMSO concentration of 0.37% in the assay.

[5] = target: BRD3 (His-Brd3(20-477)) (Homo sapiens (Human), UniProt Q15059); experiment: TR-FRET in-vitro binding assay for BRD3; conditions: acetyl-histone H4 peptide
Protocol: as §7
All assays were performed in 384 well microtiter plates. Each assay plate contained 8-point serial dilutions for 40 test compounds, plus 16 high- and 16 low controls. Liquid handling and incubation steps were done on an Innovadyne Nanodrop Express equipped with a robotic arm (Thermo CatX, Perkin Elmer/Caliper Twister II) and an incubator (Liconic STX40, Thermo Cytomat 2C450). The assay plates were prepared by addition of 50 nl per well of compound solution in 90% DMSO HummingBird nanodispenser (Zinsser Analytic). […] Reactions were incubated at 30° C. for 35 minutes. […] After 35 minutes incubation at 30° C., plates were measured in a Perkin Elmer EnVision multilabel reader.
as §3, §4, §5, §6

[6] = target: BRD4 (His-Brd4(44-477)) (Homo sapiens (Human), UniProt O60885); experiment: TR-FRET in-vitro binding assay for BRD4; conditions: acetyl-histone H4 peptide
Protocol: as §7, §8, §3, §4, §5, §9, §10

[7] = tested on: MV-4-11 cells; experiment: Cell growth inhibition assay (CellTiter-Glo), MV-4-11; assay type: cell-based, human; conditions: MV-4-11, 4 days; for GI50: Homo sapiens, MV4-11, 96 h, half-maximal growth inhibition; for MV-4-11 TGI: total growth inhibition
Protocol: as §1, §2

Chain of BRD2 (His-Brd2(60-472)) (P25440 60-472): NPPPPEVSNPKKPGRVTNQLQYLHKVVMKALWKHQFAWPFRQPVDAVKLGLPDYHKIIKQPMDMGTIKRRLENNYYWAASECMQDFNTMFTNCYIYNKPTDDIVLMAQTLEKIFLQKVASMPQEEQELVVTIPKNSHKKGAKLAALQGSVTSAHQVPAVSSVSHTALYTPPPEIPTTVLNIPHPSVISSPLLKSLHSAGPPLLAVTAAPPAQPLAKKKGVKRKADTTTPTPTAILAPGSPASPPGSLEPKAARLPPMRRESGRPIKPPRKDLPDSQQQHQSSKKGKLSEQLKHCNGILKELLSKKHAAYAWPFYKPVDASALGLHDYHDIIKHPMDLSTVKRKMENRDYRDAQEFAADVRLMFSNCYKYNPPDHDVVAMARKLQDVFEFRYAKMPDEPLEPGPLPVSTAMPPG
Chain of CREBBP bromodomain (His-CREBBP(1081-1197)) (Q92793 1081-1197): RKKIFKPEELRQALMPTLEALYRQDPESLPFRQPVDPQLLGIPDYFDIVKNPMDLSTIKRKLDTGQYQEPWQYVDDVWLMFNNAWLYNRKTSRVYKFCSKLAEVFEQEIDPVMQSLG
Chain of BRD3 (His-Brd3(20-477)) (Q15059 20-477): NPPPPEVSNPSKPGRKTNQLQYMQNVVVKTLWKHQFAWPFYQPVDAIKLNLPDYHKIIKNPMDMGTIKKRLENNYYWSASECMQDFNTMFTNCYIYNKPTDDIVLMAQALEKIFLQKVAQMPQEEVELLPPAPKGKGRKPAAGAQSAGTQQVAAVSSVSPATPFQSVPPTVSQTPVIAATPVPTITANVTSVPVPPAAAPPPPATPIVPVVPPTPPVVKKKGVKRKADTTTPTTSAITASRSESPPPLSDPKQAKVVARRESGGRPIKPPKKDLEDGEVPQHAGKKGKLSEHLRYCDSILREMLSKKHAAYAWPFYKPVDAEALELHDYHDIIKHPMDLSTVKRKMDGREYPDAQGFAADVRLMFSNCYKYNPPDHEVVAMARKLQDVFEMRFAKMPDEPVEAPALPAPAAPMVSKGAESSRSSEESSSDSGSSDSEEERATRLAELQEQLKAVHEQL

Row | Compound | GI50 [1] [µM] | GI50 [2] [µM] | IC50 [3] [µM] | IC50 [4] [µM] | IC50 [5] [µM] | IC50 [6] [µM] | GI50 [7] [µM] | K-562 TGI [1] [µM] | THP-1 TGI [2] [µM] | MV-4-11 TGI [7] [µM]
1 | COCCn1nc(C2CC2)c2c1[C@@H](c1ccc(Cl)cc1)N(c1cc(C)c3nnc(C)n3c1)C2=O [Example 15, (R)-6-(4-chlorophenyl)-3-cyclopropyl-5-(3,8-dimethyl-[1,2,4]triazolo[4,3-a]pyridin-6-yl)-1-(2-methoxyethyl)-5,6-dihydropyrrolo[3,4-c]pyrazol-4(1H)-one] | 0.0265 | 0.00642 | 6.1 | 0.02 | 0.016 | 0.018 | 0.00241 | >10 | 0.0139 | 0.00579
2 | Cc1cc(N2C(=O)c3c(C4CC4)nn(C[C@@H](O)C(F)(F)F)c3[C@H]2c2ccc(Cl)cc2)cn2c(C)nnc12 [Example 19, (R)-6-(4-chlorophenyl)-3-cyclopropyl-5-(3,8-dimethyl-[1,2,4]triazolo[4,3-a]pyridin-6-yl)-1-((R)-3,3,3-trifluoro-2-hydroxypropyl)-5,6-dihydropyrrolo[3,4-c]pyrazol-4(1H)-one] | 0.0584 | 0.0147 | 9.4 | 0.029 | 0.025 | 0.023 | 0.00523 | >10 | 0.0366 | 0.0113
3 | Cc1cc(N2C(=O)c3c(C4CC4)nn(-c4ccnn4C)c3C2c2ccc(Cl)cc2)cc2c1nnn2C (stereo not drawn) [Example 21, 6-(4-chlorophenyl)-3-cyclopropyl-5-(1,4-dimethyl-1H-benzo[d][1,2,3]triazol-6-yl)-1-(1-methyl-1H-pyrazol-5-yl)-5,6-dihydropyrrolo[3,4-c]pyrazol-4(1H)-one] | 0.0788 | 0.0223 | 6.6 | 0.031 | 0.023 | 0.017 | 0.0135 | >10 | 0.04445 | 0.02725
4 | COc1cc(N2C(=O)c3c(C4CC4)nn(C)c3C2c2ccc(Cl)cc2)cn2c(C(F)F)nnc12 (stereo not drawn) [Example 22, 6-(4-chlorophenyl)-3-cyclopropyl-5-(3-(difluoromethyl)-8-methoxy-[1,2,4]triazolo-[4,3-a]pyridin-6-yl)-1-methyl-5,6-dihydropyrrolo[3,4-c]pyrazol-4(1H)-one] | 1.18 | 0.814 | > 37 | 0.21 | 0.23 | 0.13 | 0.267 | >10 | 1.33 | 0.574

Now from value to compound, other results behind:

Row | GI50 [1] [µM] | GI50 [2] [µM] | IC50 [3] [µM] | IC50 [4] [µM] | IC50 [5] [µM] | IC50 [6] [µM] | GI50 [7] [µM] | Compound | K-562 TGI [1] [µM] | THP-1 TGI [2] [µM] | MV-4-11 TGI [7] [µM]
5 | 0.0631 | 0.00968 | 9.8 | 0.011 | < 0.011 | < 0.011 | 0.00428 | Cc1cc(N2C(=O)c3c(C4CC4)nn(C)c3[C@H]2c2ccc(Cl)cc2)cn2c(CF)nnc12 [Example 17, (R)-6-(4-chlorophenyl)-3-cyclopropyl-5-(3-(fluoromethyl)-8-methyl-[1,2,4]triazolo-[4,3-a]pyridin-6-yl)-1-methyl-5,6-dihydropyrrolo[3,4-c]pyrazol-4(1H)-one] | >10 | 0.0247 | 0.009765
6 | 0.096 | 0.0209 | 7.9 | 0.013 | 0.012 | 0.015 | 0.00647 | Cc1cc(N2C(=O)c3c(C4CC4)nn(C[C@H](O)C(F)(F)F)c3[C@H]2c2ccc(Cl)cc2)cn2c(C)nnc12 [Example 20, (R)-6-(4-chlorophenyl)-3-cyclopropyl-5-(3,8-dimethyl-[1,2,4]triazolo[4,3-a]pyridin-6-yl)-1-((S)-3,3,3-trifluoro-2-hydroxypropyl)-5,6-dihydropyrrolo[3,4-c]pyrazol-4(1H)-one] | >10 | 0.0447 | 0.0161
